Measured values taken from publication PMC7071032, “In Vitro Inhibition of Hsp90 Protein by Benzothiazoloquinazolinequinones Is Enhanced in The Presence of Ascorbate. A Preliminary In Vivo Antiproliferative Study” (Molecules, 2020).
Several values for one entry are separate records, joined by “and”; a condition that tells them apart may be missing. Identical values can stand only once.

Key:
T24 cells = assay: Clonogenic assay; format: cell-based, human; settings: for cell growth compared to control conditions (100%), in brackets / number of colony forming units (CFUs): T24 cells; for number of colony forming units (CFUs): 24 h treatment, 10 days growth
Method: Indeed, at a dose of 0.25 µM, it decreased from 195 to 72 the number of CFUs. Otherwise, it inhibits the proliferation of T24 cells by 63% as compared to the control untreated cells. […] The percentages of the observed cell growth compared to control conditions (100%) are indicated in brackets. […] Cells were allowed to adhere overnight, and then treated with quinones for 24 h. Afterward, they were washed with warm PBS, given fresh medium, and allowed to grow for 10 days. Clonogenic survival was determined by fixing and staining colonies using crystal violet and further counting their number. The number of colonies calculated under control conditions was set as 100%.

Hsp90 = assay: Immunoblot of Hsp90 protein integrity in T24 cells; format: cell-based, human; settings: 5 µM quinone plus 1 mM ascorbate, 4 h
Method: Nevertheless, when incubation was done in the presence of 1 mM ascorbate (vitamin C) plus quinones (including menadione), a new peptide fragment of about 70 kD was detected by the antibody against Hsp90.
Figure 1 Effects of selected quinones of Hsp90 (A) and poly(ADPribose)polymerase (PARP) (B) protein integrity in T24 cells. Cancer cells were incubated for 4 h with 5 µM menadione (K3), 15, 16, 19, or 20 either in the absence or in the presence of 1 mM ascorbate (Asc). Ctl represents control untreated cells. * p < 0.05 as compared to control conditions.
Cancer cells were incubated for 4 h in the absence and in the presence of compounds. Afterward, cells were washed twice with ice-cold PBS and then resuspended in RIPA lysis buffer supplemented with 1% protease inhibitor cocktail (Sigma–Aldrich, St. Louis, MO, USA) and 3% phosphatase inhibitor cocktail (Calbiochem, Darmstadt, Germany). Treatment of samples and electrophoresis conditions were conducted as previously reported. Mouse monoclonal primary antibodies against hsp90α/β C-terminus (F8), and against β-actin (clone AC-15), were purchased from Santa Cruz Biotechnology (Santa Cruz, CA, USA) and from Abcam (Cambridge, UK), respectively. Rabbit polyclonal antibodies against PARP were purchased from BD Biosciences (San Diego, CA, USA). […]

[1] = tested on: poly(ADPribose)polymerase (PARP); assay: Immunoblot of PARP protein integrity in T24 cells; format: cell-based, human; settings: 5 µM, 4 h, regardless of the presence of ascorbate (1 mM)
Method: Figure 1 Effects of selected quinones of Hsp90 (A) and poly(ADPribose)polymerase (PARP) (B) protein integrity in T24 cells. […] Ctl represents control untreated cells. * p < 0.05 as compared to control conditions. […] This was the case regardless of the presence of ascorbate (1 mM). The obtained results make a potential role of apoptosis unlikely to be the underlying mechanism of cell impairment induced by quinones, including menadione. Indeed, PARP is a substrate of caspase-3, therefore, when an apoptosis process is triggered, it is expected that PARP protein will be cleaved yielding a second protein band also recognized by the anti-PARP antibody. Cancer cells were incubated for 4 h in the absence and in the presence of compounds. Afterward, cells were washed twice with ice-cold PBS and then resuspended in RIPA lysis buffer supplemented with 1% protease inhibitor cocktail (Sigma–Aldrich, St. Louis, MO, USA) and 3% phosphatase inhibitor cocktail (Calbiochem, Darmstadt, Germany). Treatment of samples and electrophoresis conditions were conducted as previously reported. Mouse monoclonal primary antibodies against hsp90α/β C-terminus (F8), and against β-actin (clone AC-15), were purchased from Santa Cruz Biotechnology (Santa Cruz, CA, USA) and from Abcam (Cambridge, UK), respectively. Rabbit polyclonal antibodies against PARP were purchased from BD Biosciences (San Diego, CA, USA). […]

T24 (bladder) cells = tested on: T24 (bladder) cells; set-up: method as in doi:10.1016/j.tetlet.2015.07.034; settings: MTT, data from Valderrama et al. ref 16, read-out: IC50 ± SEM T24; cited from earlier work
MCF-7 (breast) cells = tested on: MCF-7 (breast) cells; set-up: method as in doi:10.1016/j.tetlet.2015.07.034; settings: MTT, data from Valderrama et al. ref 16, read-out: IC50 ± SEM MCF-7; cited from earlier work

With `Cc1ccc2c(c1)SC1=NC3=C(C(=O)c4ccccc4C3=O)C(C)(O)N12` (centres unmarked) [Compound 15] the inhibition at 0.25 µM (T24 cells; Homo sapiens, T-24, clonogenic assay, 0.25 µM, read-out: inhibition of the proliferation of T24 cells as compared to control untreated cells) was 63%, the “cell growth compared to control conditions (100%), in brackets” value (“cell growth … (100%), in brackets” for short) (T24 cells; 0.025 µM) was 92% and the “number of colony forming units (CFUs)” value (T24 cells; 0.025 µM) was 180 ± 11 CFUs. The “cell growth … (100%), in brackets” value (T24 cells; 0.125 µM) was 83%, the “number of colony forming units (CFUs)” value (T24 cells; 0.125 µM) was 162 ± 18 CFUs and the “cell growth … (100%), in brackets” value (T24 cells; 0.25 µM) was 37%. The “number of colony forming units (CFUs)” value (T24 cells; 0.25 µM) was 72 CFUs and 72 ± 5 CFUs, the “cell growth … (100%), in brackets” value (T24 cells; 1.25 µM) was 11% and the “number of colony forming units (CFUs)” value (T24 cells; 1.25 µM) was 22 ± 9 CFUs. The “cell growth … (100%), in brackets” value (T24 cells; 2.5 µM) was 8%, the “number of colony forming units (CFUs)” value (T24 cells; 2.5 µM) was 16 ± 3 CFUs and the “cell growth … (100%), in brackets” value (T24 cells; 5.0 µM) was 1%. The “number of colony forming units (CFUs)” value (T24 cells; 5.0 µM) was 2 ± 1 CFUs, the Hsp90 protein cleavage (Hsp90) was “induced an oxidative cleavage of Hsp90” and the PARP cleavage [1] was “no effect on PARP protein integrity”. For the same molecule, the IC50 (T24 (bladder) cells) was 220 ± 60 nM and the IC50 (MCF-7 (breast) cells) was 2980 ± 520 nM.
